{"source": "paper PMC10685318", "about": "“Trans-cyclosulfamidate mannose-configured cyclitol allows isoform-dependent inhibition of GH47 α-D-mannosidases through a bump–hole strategy” (Chemical Science, 2023)", "key": {"[1]": {"molecular_target": "GH47 model enzyme from Caulobacter K31 strain", "conditions": "cited from earlier work"}, "[2]": {"assay": "Chemical stability of the final compounds on storage", "format": "physicochemical", "conditions": "storage for a week at room temperature", "source_text": "1,6-Cis-manno-cyclosulfate, 4, and 1,6-trans-manno-cyclosulfate, 5, were synthesized from mannose-configured cis-diol and trans-diol, respectively (ESI, Scheme S1 ^†)."}, "[3]": {"substrate": "OC[C@H]1O[C@H](O[C@@H]2C(O)O[C@H](CO)[C@@H](O)[C@@H]2O)[C@@H](O)[C@@H](O)[C@@H]1O", "assay": "purified protein, by the assay type", "conditions": "other: CkGH47 WT, substrate; pH 7.0"}, "[4]": {"substrate": "OC[C@H]1O[C@H](O[C@@H]2C(O)O[C@H](CO)[C@@H](O)[C@@H]2O)[C@@H](O)[C@@H](O)[C@@H]1O", "assay": "purified protein, by the assay type", "format": "biochemical, Caulobacter K31 strain", "conditions": "other: CkGH47 L310S, substrate; pH 7.0", "protocol": "Fig. 4 Catalytic activity of CkGH47 WT compared to the CkGH47 L310S mutant. […] (C) The Ki, derived from the gradient (1/Ki), for 6 against CkGH47 L310S.\nTrans-Cyclosulfamidate Cyclitols Males et al.\n2.1 Biochemical and biological methods\nTo obtain Michaelis-Menten kinetics\nLastly, to achieve an inhibition constant, the\nThe gradient of the graph, V0/Vi\nAfter taking each time point, the sample was heat denatured at 95 °C for 5 minutes. The reactions were conducted in triplicate and averaged. […]\nmicroplate spectrophotometer (BioTek). The mannose detection kit (Megazyme) was used to detect […]\ndehydrogenase, was monitored at 340 nm. The absorbance after hexokinase was added to the mixture […]\n2.1.2 Isothermal titration calorimetry\nMicroCal ITC200 calorimeter at 25 °C over 20 injections. The experiment was duplicated to obtain a […]\nthe MicroCal PEAK-ITC analysis software.\n2.2 Crystallographic data collection and refinement of CkGH47\n3′ and the reverse primer was 5′-[…]-3′. Protein production and purification was followed as described previously.[3]\nReference data in the form of a\nRefinement of the model was conducted […]\nconformation was conducted using […]. Details of the data collection and refinement statistics […]\nFigures of the structure were produced by using CCP4mg."}}, "data": [{"molecule": "OC[C@H]1NC[C@@H](O)[C@@H](O)[C@@H]1O", "note": "[DMJ, 1-deoxymannojirimycin]", "values": [{"measurement": "Kd", "setting": "[1]", "result": 0.481, "unit": "µM"}]}, {"molecule": "OC[C@@H]1[C@@H](O)[C@H](O)[C@H](O)c2nccn21", "note": "[mannoimidazole]", "values": [{"measurement": "Kd", "setting": "[1]", "result": 0.047, "unit": "µM"}]}, {"molecule": "O=C1N[C@@H]2[C@@H](O)[C@@H](O)[C@H](O)[C@@H](CO)N2C1=O", "note": "[kifunensine]", "values": [{"measurement": "Kd", "setting": "[1]", "result": 0.039, "unit": "µM"}]}, {"molecule": "O=S1(=O)O[C@@H]2[C@@H](O)[C@@H](O)[C@H](O)[C@@H](CO)[C@H]2O1", "note": "[compound 5, 1,6-trans-manno-cyclosulfate]", "values": [{"measurement": "stability on storage", "setting": "[2]", "result": "compound degradation"}]}, {"molecule": "O=S1(=O)O[C@@H]2[C@@H](O)[C@@H](O)[C@H](O)[C@@H](CO)[C@@H]2O1", "note": "[compound 4, 1,6-cis-manno-cyclosulfate]", "values": [{"measurement": "stability on storage", "setting": "[2]", "result": "compound degradation"}]}, {"molecule": "CkGH47 WT (Caulobacter sp. K31) (protein) AAETTPEDWKALAADVRSEFQWAWQGYVAKAWGKDEINPVSGTSRSFFIEGHDLGLSLVEALDTLWIMGLDAEFQAGVDWVKANLSFDVDGNAQVFETNIRLVGGLLSAHLASGDPVLLAKARDLADRLAKAFEASPHGLPWRYVNLRTGAVSDPETNLAEIGTYLSEFGVLSQLTGERKYFDMAKRAMRHTLDRRSKIGLMAANIHAMTGAFTSRNASIDVYADSFYEYLWDAWALFGDEDCKRWAVECVDAQLAHQAKRYDGRLWFPMVDFETGAVTGTAQSELAAYYAGLLGQVGRKAQGDDYLASFTYLQATFGVIPESIDVTTGQPRRKHTGLRPEYPDACLNLWLIDRDPRYRRLAAIHYREMKATSRAAFGYTALKDITTRPMTQDDNCPGYWWSEQMKYYYLLFSDTPRIDYGQLQLSTEANVLRGFRKV", "values": [{"measurement": "Km", "setting": "[3]", "result": "65.7 ± 14.2", "unit": "µM"}]}, {"molecule": "CkGH47 L310S (Caulobacter sp. K31; L310S) (protein) AAETTPEDWKALAADVRSEFQWAWQGYVAKAWGKDEINPVSGTSRSFFIEGHDLGLSLVEALDTLWIMGLDAEFQAGVDWVKANLSFDVDGNAQVFETNIRLVGGLLSAHLASGDPVLLAKARDLADRLAKAFEASPHGLPWRYVNLRTGAVSDPETNLAEIGTYLSEFGVLSQLTGERKYFDMAKRAMRHTLDRRSKIGLMAANIHAMTGAFTSRNASIDVYADSFYEYLWDAWALFGDEDCKRWAVECVDAQLAHQAKRYDGRLWFPMVDFETGAVTGTAQSESAAYYAGLLGQVGRKAQGDDYLASFTYLQATFGVIPESIDVTTGQPRRKHTGLRPEYPDACLNLWLIDRDPRYRRLAAIHYREMKATSRAAFGYTALKDITTRPMTQDDNCPGYWWSEQMKYYYLLFSDTPRIDYGQLQLSTEANVLRGFRKV", "values": [{"measurement": "Km", "setting": "[4]", "result": "402.8 ± 71.3", "unit": "µM"}]}]}
